Assay results published in patent US5952328A, “Benzothiazo and related heterocyclic group-containing cysteine and serine protease inhibitors” (Cephalon, Inc., priority 1997, dated 1999).

Target: T1, Calpain I (Homo sapiens, UniProt P07384)
T1 construct: made in house
T1 sequence (P07384 1-714): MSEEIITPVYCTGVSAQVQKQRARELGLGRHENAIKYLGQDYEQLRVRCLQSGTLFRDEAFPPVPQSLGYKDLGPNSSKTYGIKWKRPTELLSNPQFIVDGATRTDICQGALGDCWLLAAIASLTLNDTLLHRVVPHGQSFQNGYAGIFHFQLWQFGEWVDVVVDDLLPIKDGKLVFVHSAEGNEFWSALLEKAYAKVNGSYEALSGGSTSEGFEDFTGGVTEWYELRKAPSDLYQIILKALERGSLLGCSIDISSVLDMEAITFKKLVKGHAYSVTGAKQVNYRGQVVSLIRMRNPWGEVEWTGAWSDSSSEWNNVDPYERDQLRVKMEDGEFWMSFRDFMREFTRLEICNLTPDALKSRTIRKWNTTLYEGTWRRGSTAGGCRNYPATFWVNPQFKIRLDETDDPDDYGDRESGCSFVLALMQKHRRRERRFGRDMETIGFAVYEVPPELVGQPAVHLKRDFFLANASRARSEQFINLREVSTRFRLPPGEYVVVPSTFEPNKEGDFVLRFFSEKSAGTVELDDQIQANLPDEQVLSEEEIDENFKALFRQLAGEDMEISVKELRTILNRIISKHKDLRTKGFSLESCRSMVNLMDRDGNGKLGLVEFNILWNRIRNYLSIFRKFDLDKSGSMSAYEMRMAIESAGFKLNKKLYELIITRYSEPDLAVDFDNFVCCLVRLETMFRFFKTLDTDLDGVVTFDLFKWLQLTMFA
T1 sequence (P04632 1-268 partner): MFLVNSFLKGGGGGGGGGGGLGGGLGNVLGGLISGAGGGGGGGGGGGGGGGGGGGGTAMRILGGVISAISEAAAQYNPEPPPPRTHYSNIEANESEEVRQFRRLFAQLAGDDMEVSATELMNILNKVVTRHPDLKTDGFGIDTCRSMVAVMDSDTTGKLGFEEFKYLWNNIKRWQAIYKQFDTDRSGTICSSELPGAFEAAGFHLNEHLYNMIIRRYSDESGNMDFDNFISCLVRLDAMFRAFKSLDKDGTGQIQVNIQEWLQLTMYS
Test: Inhibition of calpain I activity (Succ-Leu-Tyr-MNA substrate hydrolysis, fluorescence)
Type: biochemical
Conditions: Table II; calpain I, 0.2 mM Succ-Leu-Tyr-MNA, pH 7.5; * mixture of diastereomers, a,b single diastereomers; read-out: IC50
Description: To evaluate inhibitory activity, stock solutions (40 times concentrated) of each compound to be tested were prepared in 100% anhydrous DMSO and […] of each inhibitor preparation were aliquoted into each of three wells of a 96-well plate. Calpain I, prepared by a modification of the method of W. J. Lee et al. (Biochem. […] To start the reaction, […] of 50 mM CaCl2 in assay buffer was added to each of the wells of the plate, excepting three, which were used as background signal baseline controls. Substrate hydrolysis was monitored every 5 minutes for a total of 30 minutes using a Fluoroskan II fluorescence plate reader. […] Inhibition of calpain I activity was calculated as the percent decrease in the rate of substrate hydrolysis in the presence of inhibitor relative to the rate in its absence. Comparison between the inhibited and control rates was made within the linear range for substrate hydrolysis. For screening, compounds were tested at […]. […] The results were plotted as percent inhibition versus log inhibitor concentration, and the IC50 was calculated from linear regression of the data.

SMILES	IC50 [nM]
CN1C(C(=O)N[C@H](C=O)Cc2ccccc2)Cc2cc(N3CCOCC3)ccc2S1(=O)=O (stereo partly drawn) [Cpd 12z, N-(3,4-Dihydro-6-(4-morpholino)-2-methyl-2H-1,2-benzothiazine-3-carbonyl)-L-phenylalaninal 1,1-dioxide]	~500
CCNC(=O)C(=O)[C@H](Cc1ccccc1)NC(=O)C1Cc2cc(Cl)ccc2S(=O)(=O)N1C (stereo partly drawn) [Cpd 14A, N-Ethyl-3-(6-chloro-3,4-dihydro-2-methyl-2H-1,2-benzothiazine-3-carboxamido)-2-oxo-3-(S)-benzylpropanamide 1,1-dioxide]	~1000
CC(C)N1C(C(=O)N[C@H](C=O)Cc2ccccc2)Cc2cc3c(cc2S1(=O)=O)OCCO3 (stereo partly drawn) [Cpd 12u, N-(3,4-Dihydro-6,7-ethylenedioxy-2-isopropyl-2H-1,2-benzothiazine-3-carbonyl)-L-phenylalaninal 1,1-dioxide]	30
CN1C(C(=O)N[C@H](C=O)Cc2ccccc2)Cc2cc3c(cc2S1(=O)=O)OCCO3 (stereo partly drawn) [Cpd 12r, N-(3,4-Dihydro-6,7-ethylenedioxy-2-methyl-2H-1,2-benzothiazine-3-carbonyl)-L-phenylalaninal 1,1-dioxide]	24
COc1cc2c(cc1OC)S(=O)(=O)NC(C(=O)N[C@H](C=O)Cc1ccccc1)C2 (single isomer, unassigned) [Cpd 12c, N-(3,4-Dihydro-6,7-dimethoxy-2H-1,2-benzothiazine-3-carbonyl)-L-phenylalaninal 1,1-dioxide]	~800
CC(C)CN1C(C(=O)N[C@H](C=O)Cc2ccccc2)Cc2cc(Cl)ccc2S1(=O)=O (stereo partly drawn) [Cpd 12n, N-(3,4-Dihydro-6-chloro-2-isobutyl-2H-1,2-benzothiazine-3-carbonyl)-L-phenylalaninal 1,1-dioxide]	~200
CN1C(C(=O)N[C@H](C=O)CCCCNS(=O)(=O)c2ccccc2)Cc2cc3c(cc2S1(=O)=O)OCCO3 (stereo partly drawn) [Cpd 12y, Nα -(3,4-Dihydro-6,7-ethylenedioxy-2-methyl-2H-1,2-benzothiazine-3-carbonyl)-L-Nε -(benzenesulfonyl)lysinal 1,1-dioxide]	107
COc1cc2c(cc1OC)S(=O)(=O)N(Cc1ccccc1)C(C(=O)N[C@H](C=O)Cc1ccccc1)C2 (stereo partly drawn) [Cpd 12h, N-(2-Benzyl-3,4-dihydro-6,7-dimethoxy-2H-1,2-benzothiazine-3-carbonyl)-L-phenylalaninal 1,1-dioxide]	150
COc1cc2c(cc1OC)S(=O)(=O)NC(C(=O)N[C@H](C=O)Cc1ccccc1)C2 (single isomer, unassigned) [Cpd 12d, N-(3,4-Dihydro-6,7-dimethoxy-2H-1,2-benzothiazine-3-carbonyl)-L-phenylalaninal 1,1-dioxide]	~700
CN1C(C(=O)N[C@H](C=O)Cc2ccccc2)Cc2ccccc2S1(=O)=O (stereo partly drawn) [Cpd 12j, N-(3,4-Dihydro-2-methyl-2H-1,2-benzothiazine-3-carbonyl)-L-phenylalaninal 1,1-dioxide]	110
CN1C(C(=O)N[C@H](C=O)Cc2ccccc2)Cc2cc(Cl)ccc2S1(=O)=O (stereo partly drawn) [Cpd 12p, N-(6-Chloro-3,4-dihydro-2-methyl-2H-1,2-benzothiazine-3-carbonyl)-L-phenylalaninal 1,1-dioxide]	5

Same assay, conditions: Table III; calpain I, 0.2 mM Succ-Leu-Tyr-MNA, pH 7.5; * mixture of diastereomers, a,b single diastereomers; read-out: IC50

SMILES	IC50 [nM]
CCN1C(C(=O)N[C@@H](Cc2ccccc2)C(=O)C(=O)NCCCNS(=O)(=O)c2ccccc2)Cc2cc3c(cc2S1(=O)=O)OCCO3 (stereo partly drawn) [Cpd 14AA, 3-((3,4-Dihydro-6,7-ethylenedioxy-2-ethyl-2H-1,2-benzothiazine-3-carbonyl)amino)-3-(S)-benzyl-2-oxo-N-(3-(benzenesulfonylamino)propyl)propanamide 1,1-dioxide]	35
CCN1C(C(=O)N[C@@H](Cc2ccccc2)C(=O)C(=O)NCCNS(=O)(=O)c2ccc([N+](=O)[O-])cc2)Cc2cc3c(cc2S1(=O)=O)OCCO3 (stereo partly drawn) [Cpd 14T, 3-((3,4-Dihydro-6,7-ethylenedioxy-2-ethyl-2H-1,2-benzothiazine-3-carbonyl)amino)-3-(S)-benzyl-2-oxo-N-(2-(4-nitrobenzenesulfonylamino)ethyl)propanamide 1,1-dioxide]	47
CCNC(=O)C(=O)[C@H](Cc1ccccc1)NC(=O)C1Cc2cc3c(cc2S(=O)(=O)N1CC)OCCO3 (some centres unmarked) [Cpd 14D]	340
CCN1C(C(=O)N[C@@H](Cc2ccccc2)C(=O)C(=O)NCCNS(C)(=O)=O)Cc2cc3c(cc2S1(=O)=O)OCCO3 (some centres unmarked) [Cpd 14S]	89
CCN1C(C(=O)N[C@@H](Cc2ccccc2)C(=O)C(=O)NCCCNS(=O)(=O)c2ccc(Cl)c(Cl)c2)Cc2cc3c(cc2S1(=O)=O)OCCO3 (stereo partly drawn) [Cpd 14W, 3-((3,4-Dihydro-6,7-ethylenedioxy-2-ethyl-2H-1,2-benzothiazine-3-carbonyl)amino)-3-(S)-benzyl-2-oxo-N-(3-(3,4-dichlorobenzenesulfonylamino)propyl)propanamide 1,1-dioxide]	56

Same assay, conditions: Table IV; calpain I, 0.2 mM Succ-Leu-Tyr-MNA, pH 7.5; read-out: IC50

SMILES	IC50 [nM]
CN1C(C(=O)N[C@H](C=O)Cc2ccccc2)=Cc2cc3c(cc2S1(=O)=O)OCCO3 [Cpd 26b, N-(6,7-Ethylenedioxy-2-methyl-2H-1,2-benzothiazine-3-carbonyl)-L-phenylalaninal 1,1-dioxide]	6
CCCCNC(=O)C(=O)[C@H](Cc1ccccc1)NC(=O)C1=Cc2cc3c(cc2S(=O)(=O)N1C)OCCO3 [Cpd 27e, 3-((6,7-Ethylenedioxy-2-methyl-2H-1,2-benzothiazine-3-carbonyl)amino)-3-(S)-benzyl-2-oxo-N-butylpropanamide 1,1-dioxide]	210
CCCCNC(=O)C(=O)[C@H](Cc1ccccc1)NC(=O)C1=C(OC)c2ccccc2S(=O)(=O)N1C [Cpd 27g, 3-((4-Methoxy-2-methyl-2H-1,2-benzothiazine-3-carbonyl)amino)-3-(S)-benzyl-2-oxo-N-butylpropanamide 1,1-dioxide]	900
CCCCNC(=O)C(=O)[C@H](Cc1ccccc1)NC(=O)C1=Cc2cc3c(cc2S(=O)(=O)N1CC)OCCO3 [Cpd 27f]	155

Same assay, conditions: Table V; calpain I, 0.2 mM Succ-Leu-Tyr-MNA, pH 7.5; * mixture of diastereomers, a,b single diastereomers; read-out: IC50

SMILES	IC50 [nM]
CCCN1c2ccccc2S(=O)(=O)N(CC)C1C(=O)N[C@H](C=O)Cc1ccccc1 (single isomer, unassigned) [Cpd 35a, N-(3,4-Dihydro-2-ethyl-4-propyl-2H-1,2,4-benzothiadiazine-3-carbonyl)-L-phenylalaninal 1,1-dioxide]	~1000
CCCCNC(=O)C(=O)[C@H](Cc1ccccc1)NC(=O)C1Nc2ccccc2S(=O)(=O)N1C (stereo partly drawn) [Cpd 35e, 3-((3,4-Dihydro-4H-2-methyl-2H-1,2,4-benzothiadiazine-3-carbonyl)amino)-3-(S)-benzyl-2-oxo-N-butylpropanamide 1,1-dioxide]	~2000
CCN1C(C(=O)N[C@H](C=O)Cc2ccccc2)N(Cc2ccccc2)c2ccccc2S1(=O)=O (single isomer, unassigned) [Cpd 35d, N-(3,4-Dihydro-2-ethyl-4-benzyl-2H-1,2,4-benzothiadiazine-3-carbonyl)-L-phenylalaninal 1,1-dioxide]	~1000

Same assay, conditions: Table VI; calpain I, 0.2 mM Succ-Leu-Tyr-MNA, pH 7.5; read-out: IC50

SMILES	IC50 [nM]
CCCCNC(=O)C(=O)[C@H](Cc1ccccc1)NC(=O)C1=Nc2ccccc2S(=O)(=O)N1 [Cpd 42c, 3-((2H-1,2,4-Benzothiadiazine-3-carbonyl)amino)-3-(S)-benzyl-2-oxo-N-butylpropanamide 1,1-dioxide]	~5000
O=C[C@H](Cc1ccccc1)NC(=O)C1=Nc2cc3c(cc2S(=O)(=O)N1)OCCO3 [Cpd 42b, N-(2H-6,7-Ethylenedioxy-1,2,4-benzothiadiazine-3-carbonyl)-L-phenylalaninal1,1-dioxide]	28

Same assay, conditions: Table VII; calpain I, 0.2 mM Succ-Leu-Tyr-MNA, pH 7.5; a,b single diastereomers; read-out: IC50

SMILES	IC50 [nM]
O=C[C@H](Cc1ccccc1)NC(=O)C1Cc2ccccc2C(=O)N1 (single isomer, unassigned) [Cpd 50a, N-(1-Oxo-1,2,3,4-tetrahydroisoquinoline-3-carbonyl)-L-phenylalaninal]	~5000
